# Source: patent publication US20160355530A1, “HEPATITIS C INHIBITORS AND USES THEREOF” (AbbVie Inc., priority 2010, published 2016)
# Where two headings read alike, the source gives them in different places.
# Tests used:
# [1] = test system: HCV 1b-BB7 subgenomic replicon; test: microbe, parasite or virus in culture; type: cell-based, HCV genotype 1b; details: Hepatitis C virus, stable replicon
# [2] = test system: HCV 1a-H77 transient subgenomic replicon in Huh-7 derived cell line; test: microbe, parasite or virus in culture; type: cell-based, HCV genotype 1a; details: Hepatitis C virus, Huh-7; transient replicon, 5% FBS; read-out: Transient Replicon 1a H77 5% FBS EC50
# Description: (§1) In addition to the stable replicon inhibition assays, transient replicon assays were performed. Transient replicons are identical to the 1a-H77 and 1a-H77-C316Y constructs, except they lack the Neo gene, making it impossible to establish stable cell lines. A T7 Megascript RNA synthesis kit (Ambion) was used to transcribe the HCV subgenomic RNA. The HCV RNA was then precipitated with lithium chloride according to manufacturer's instructions. The HCV subgenomic replicon RNA was transfected via electroporation into a Huh-7 derived cell line as described (Middleton T, et al. J. Virological Methods 2007; 145(2): 137-145). Transfected cells were diluted and plated in 96 well plates at 5×10^3 cells per well in DMEM. Four hours post-transfection, the wells from one plate were harvested for luciferase measurement. This plate provides a measure of the amount of translatable input RNA, and therefore transfection efficiency. To the wells of the remaining plates, a 3-fold dilution series of test compounds was added in DMSO (0.5% DMSO final concentration), and plates were incubated at 37° C., 5% CO2 in a humidified incubator for 4 days. After this period, the media was removed and the plates were washed with 100 μL phosphate-buffered saline per well. For the luciferase assay, 30 μL of Passive Lysis buffer (Promega) was added to each well, and then the plates were incubated for 15 minutes with rocking to lyse the cells. Luciferin solution (100 μL, Promega) was added to each well, and luciferase activity was measured with a Victor II luminometer (Perkin-Elmer). The EC50 values were calculated using GraphPad Prism 4 software.
# [3] = test system: HCV 1a-H77-C316Y transient subgenomic replicon in Huh-7 derived cell line; test: microbe, parasite or virus in culture; type: cell-based, HCV genotype 1a; details: for EC50: Hepatitis C virus, Huh-7, read-out: Transient Replicon 1a H77-C316Y 5% FBS EC50; for Transient Replicon Fold Resistance C316Y/1a: ratio of transient replicon EC50s, C316Y / 1a H77
# Description: as §1
# [4] = target: T1, HCV NS5B polymerase 1b BK strain (Hepatitis C virus genotype 1b, UniProt P26663); test: HCV NS5B polymerase enzymatic inhibition assay, strain 1b BK; type: biochemical; details: enzyme, strain 1b BK; read-out: HCV Polymerase Strain 1b BK IC50
# T1 construct: six-histidine tag; made in house; host or cells: E. coli
# Outline: (§2)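 Incorporation of [3H]UTP (0.284 μM), alongside 20 μM each CTP and ATP, into RNA copied from a 5 nM 2.1 kb genotype 1b negative-strand template was measured after 3 h at 30° C using purified His-tagged NS5B truncated at residue 570. Product was spermine-precipitated, filtered and scintillation-counted; nonlinear regression gave IC50.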
# [5] = test system: chimeric replicon with 2a-J6CF-derived NS5B; test: microbe, parasite or virus in culture; type: cell-based, HCV genotype 2a; details: Hepatitis C virus, read-out: 2a chimera 5% FBS EC50
# [6] = test system: chimeric replicon with genotype 2b NS5B; test: microbe, parasite or virus in culture; type: cell-based, HCV genotype 2b; details: Hepatitis C virus, read-out: 2b chimera 5% FBS EC50
# [7] = target: T2, HCV NS5B polymerase 1a-H77-C316Y (Hepatitis C virus genotype 1a, UniProt P27958, C2736Y); test: biochemical; design: species or system HCV genotype 1a
# T2 construct: six-histidine tag; made in house; host or cells: E. coli
# Outline: as §2
# [8] = test system: HCV NS5B polymerase 1a-H77-C316Y; test: biochemical; design: species or system HCV genotype 1a; details: ratio of enzyme IC50s, 1a H77-C316Y / 1a H77
# Outline: as §2
# [9] = target: T3, HCV NS5B polymerase 1a-H77 (Hepatitis C virus genotype 1a, UniProt P27958); test: biochemical; design: species or system HCV genotype 1a
# T3 construct: six-histidine tag; made in house; host or cells: E. coli
# Outline: as §2
# [10] = test system: chimeric replicon with genotype 4a NS5B; test: microbe, parasite or virus in culture; type: cell-based, HCV genotype 4a; details: Hepatitis C virus, read-out: 4a chimera 5% FBS EC50
# [11] = test system: chimeric replicon with genotype 3a NS5B; test: microbe, parasite or virus in culture; type: cell-based, HCV genotype 3a; details: Hepatitis C virus, read-out: 3a chimera 5% FBS EC50
# [12] = test system: HCV 1a-H77 subgenomic replicon; test: microbe, parasite or virus in culture; type: cell-based, HCV genotype 1a; details: Hepatitis C virus, stable replicon
# [13] = strain 1b BB7, 5% FBS + 40% human plasma, read-out: 1b BB7 5% FBS + 40% Human Plasma EC50
# [14] = strain 1b BB7, 5% FBS, no human plasma, read-out: 1b BB7 5% FBS EC50
# [15] = strain 1b BB7, 5% FBS, read-out: 1b BB7 5% FBS EC50
# [16] = enzyme, strain 1a H77, read-out: HCV Polymerase Strain 1a H77 IC50
# [17] = 5% FBS, absence of human plasma, read-out: Stable Replicon 1a H77 5% FBS EC50
# [18] = strain 1a H77, 5% FBS + 40% human plasma, read-out: 1a H77 5% FBS + 40% Human Plasma EC50
# [19] = strain 1a H77, 5% FBS, no human plasma, read-out: 1a H77 5% FBS EC50
# [20] = strain 1a H77, 5% FBS, read-out: 1a H77 5% FBS EC50
# T3 sequence (P27958 2421-2990): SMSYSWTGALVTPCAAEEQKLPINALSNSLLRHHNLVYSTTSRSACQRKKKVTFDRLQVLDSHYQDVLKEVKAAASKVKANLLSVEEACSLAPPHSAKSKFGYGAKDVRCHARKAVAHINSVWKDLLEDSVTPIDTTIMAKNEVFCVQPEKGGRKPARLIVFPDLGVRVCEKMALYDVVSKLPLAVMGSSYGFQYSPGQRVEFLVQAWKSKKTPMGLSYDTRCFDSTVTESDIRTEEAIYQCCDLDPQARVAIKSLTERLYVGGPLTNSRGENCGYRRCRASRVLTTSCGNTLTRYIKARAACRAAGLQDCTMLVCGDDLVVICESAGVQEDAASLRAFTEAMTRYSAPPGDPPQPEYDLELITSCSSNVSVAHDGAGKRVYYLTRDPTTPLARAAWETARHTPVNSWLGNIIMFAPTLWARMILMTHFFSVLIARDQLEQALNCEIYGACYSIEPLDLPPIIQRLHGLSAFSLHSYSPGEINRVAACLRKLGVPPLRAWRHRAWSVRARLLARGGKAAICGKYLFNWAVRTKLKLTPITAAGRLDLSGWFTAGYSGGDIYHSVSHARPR
# T2 sequence (P27958 2421-2990 C2736Y): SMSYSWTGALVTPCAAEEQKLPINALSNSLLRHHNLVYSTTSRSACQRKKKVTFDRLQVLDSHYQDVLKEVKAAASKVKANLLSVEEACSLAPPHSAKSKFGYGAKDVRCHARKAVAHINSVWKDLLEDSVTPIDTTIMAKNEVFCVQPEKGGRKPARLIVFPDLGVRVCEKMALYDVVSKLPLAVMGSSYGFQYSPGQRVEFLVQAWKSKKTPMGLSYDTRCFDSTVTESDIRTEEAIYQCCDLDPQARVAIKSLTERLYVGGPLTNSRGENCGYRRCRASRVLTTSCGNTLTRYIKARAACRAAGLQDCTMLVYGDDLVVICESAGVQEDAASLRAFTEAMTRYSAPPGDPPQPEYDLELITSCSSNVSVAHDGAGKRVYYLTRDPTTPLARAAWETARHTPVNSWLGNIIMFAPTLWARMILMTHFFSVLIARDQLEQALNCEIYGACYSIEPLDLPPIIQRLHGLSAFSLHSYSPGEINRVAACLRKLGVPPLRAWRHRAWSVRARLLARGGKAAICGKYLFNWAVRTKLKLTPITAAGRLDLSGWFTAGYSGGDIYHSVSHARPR
# T1 sequence (P26663 2420-2989): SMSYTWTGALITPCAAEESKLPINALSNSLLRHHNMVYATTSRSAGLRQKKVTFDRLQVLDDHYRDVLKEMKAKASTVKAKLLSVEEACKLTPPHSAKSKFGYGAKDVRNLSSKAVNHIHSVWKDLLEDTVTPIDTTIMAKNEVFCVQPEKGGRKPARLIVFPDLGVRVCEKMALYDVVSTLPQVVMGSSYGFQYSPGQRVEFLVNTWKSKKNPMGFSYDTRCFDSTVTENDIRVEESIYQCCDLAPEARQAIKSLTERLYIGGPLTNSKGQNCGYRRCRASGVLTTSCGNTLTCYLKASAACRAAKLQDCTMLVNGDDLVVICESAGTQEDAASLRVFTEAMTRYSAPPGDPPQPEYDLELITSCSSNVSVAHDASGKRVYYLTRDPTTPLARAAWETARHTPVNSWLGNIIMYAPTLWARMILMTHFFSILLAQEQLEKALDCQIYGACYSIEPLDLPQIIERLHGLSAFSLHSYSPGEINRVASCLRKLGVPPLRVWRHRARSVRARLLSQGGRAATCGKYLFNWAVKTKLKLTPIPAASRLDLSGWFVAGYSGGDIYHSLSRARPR
SMILES,"EC50 [1, 13] [µM]","EC50 [1, 14] [µM]","EC50 [1, 15] [µM]",EC50 [2] [µM],EC50 [3] [µM],Transient Replicon Fold Resistance C316Y/1a [3] [fold],IC50 [4] [µM],EC50 [5] [µM],EC50 [6] [µM],IC50 [7] [µM],C316Y/1a Fold Resistance [8] [fold],"IC50 [9, 16] [µM]",EC50 [10] [µM],EC50 [11] [µM],"EC50 [12, 17] [µM]","EC50 [12, 18] [µM]","EC50 [12, 19] [µM]","EC50 [12, 20] [µM]",IC50 [9] [µM]
"CC1NC(c2c(-c3ccc(F)cc3)oc3cc(N(CCCCO)S(C)(=O)=O)c(C4CC4)cc23)=NO1 (stereo not drawn) [Example 11, N-[5-cyclopropyl-2-(4-fluorophenyl)-3-(5-methyl-4,5-dihydro-1,2,4-oxadiazol-3-yl)-1-benzofuran-6-yl]-N-(4-hydroxybutyl)methanesulfonamide]",0.199,0.0103,0.0103,0.003,0.0344,11,0.02,0.085,0.0985,0.03,5,0.0059,0.0244,0.0166,0.008,0.1,0.008,0.008,–
"CC1NC(c2c(-c3ccc(F)cc3)oc3cc(N(CCS(C)(=O)=O)S(C)(=O)=O)c(C4CC4)cc23)=NO1 (stereo not drawn) [Example 12, N-[5-cyclopropyl-2-(4-fluorophenyl)-3-(5-methyl-4,5-dihydro-1,2,4-oxadiazol-3-yl)-1-benzofuran-6-yl]-N-[2-(methylsulfonyl)ethyl]methanesulfonamide]",0.082,0.011,0.011,0.078,1.22,16,0.017,0.285,0.221,0.043,8,0.0055,0.0733,0.026,0.0426,0.05,0.0426,0.0426,–
"CC1NC(c2c(-c3ccc(F)cc3)oc3cc(N(CC[S+](C)[O-])S(C)(=O)=O)c(C4CC4)cc23)=NO1 (stereo not drawn) [Example 13, N-[5-cyclopropyl-2-(4-fluorophenyl)-3-(5-methyl-4,5-dihydro-1,2,4-oxadiazol-3-yl)-1-benzofuran-6-yl]-N-[2-(methylsulfinyl)ethyl]methanesulfonamide]",0.146,0.0159,0.0159,0.0111,0.134,12,0.026,0.384,0.307,0.115,16,0.0074,0.159,0.042,0.0148,0.163,0.0148,0.0148,–
"CS(=O)(=O)N(CCCS(N)(=O)=O)c1cc2oc(-c3ccc(F)cc3)c(C3=NOCN3)c2cc1C1CC1 [Example 15, 3-{[5-cyclopropyl-3-(4,5-dihydro-1,2,4-oxadiazol-3-yl)-2-(4-fluorophenyl)-1-benzofuran-6-yl](methylsulfonyl)amino}propane-1-sulfonamide]",0.818,0.01,0.01,0.0082,0.166,20,0.011,0.128,0.105,0.031,10,–,0.142,0.012,0.0065,1.77,0.0065,0.0065,0.003
"CS(=O)(=O)N(CCCCO)c1cc2oc(-c3ccc(F)cc3)c(C3=NOCN3)c2cc1C1CC1 [Example 16, N-[5-cyclopropyl-3-(4,5-dihydro-1,2,4-oxadiazol-3-yl)-2-(4-fluorophenyl)-1-benzofuran-6-yl]-N-(4-hydroxybutyl)methanesulfonamide]",2.19,0.0025,0.0025,0.0026,0.0437,17,0.018,0.0438,0.0604,0.035,12,0.003,0.0613,0.0055,0.0038,0.411,0.0038,0.0038,–
"CC(C)CCN(c1cn2nc(-c3ccc(F)cc3)c(-c3ncc[nH]3)c2cc1C1CC1)S(C)(=O)=O [Example 17, N-[5-cyclopropyl-2-(4-fluorophenyl)-3-(1H-imidazol-2-yl)pyrazolo[1,5-a]pyridin-6-yl]-N-(3-methylbutyl)methanesulfonamide]",0.395,0.0572,0.0572,0.055,0.838,15,0.438,1,1,1.8,52,0.0349,> 1,0.148,0.0989,1.2,0.0989,0.0989,–
"CS(=O)(=O)N(CCCC#N)c1cc2oc(-c3ccc(F)cc3)c(-c3ncc[nH]3)c2cc1C1CC1 [Example 49, N-(3-cyanopropyl)-N-[5-cyclopropyl-2-(4-fluorophenyl)-3-(1H-imidazol-2-yl)-1-benzofuran-6-yl]methanesulfonamide]",0.0281,0.003,0.003,0.0022,0.0768,35,0.017,0.0224,0.0415,0.052,10,0.005,0.0339,0.0037,0.0037,0.0539,0.0037,0.0037,–
"CCOC(=O)CCCCN(c1cc2oc(-c3ccc(F)cc3)c(-c3ncc[nH]3)c2cc1C1CC1)S(C)(=O)=O [Example 50, ethyl 5-{[5-cyclopropyl-2-(4-fluorophenyl)-3-(1H-imidazol-2-yl)-1-benzofuran-6-yl](methylsulfonyl)amino}pentanoate]",0.067,0.0087,0.0087,0.0095,0.169,18,0.012,0.0907,0.147,0.104,27,0.0039,0.149,0.0153,0.0122,0.097,0.0122,0.0122,–
